Laboratory results published in patent US9243025B2, “Compounds and pharmaceutical compositions for the treatment of viral infections” (Idenix Pharmaceuticals, LLC, priority 2011, dated 2016).
Where two headings read alike, the source gives them in different places.

Assays:
[1] = system: Huh-7 cells containing HCV Coni subgenomic replicon (GS4.1 cells); test: HCV replicon assay; type: cell-based; conditions: read-out: HCV Replicon EC50
Description: (§1) Huh-7 cells containing HCV Coni subgenomic replicon (GS4.1 cells), (C. Seeger; Fox Chase University, Philadelphia, Pa., USA), are grown in Dulbecco's Modified Eagle Medium (DMEM) supplemented with 10% fetal bovine serum (FBS), 2 mM L-glutamine, 110 mg/L sodium pyruvate, 1× non-essential amino acids, 100 U/mL penicillin-streptomycin and 0.5 mg/mL G418 (Invitrogen). For dose-response testing, the cells are seeded in 96-well plates at 7.5×10^3 cells/well in a volume of 50 μL and incubated at 37° C./5% CO2. Three hours after plating, 50 μL of ten 2-fold serial dilutions of compounds (highest concentration, 75 μM) are added and cell cultures were incubated at 37° C./5% CO2 in the presence of 0.5% DMSO. Alternatively, compounds are tested at a single concentration of 15 μM. In all cases, Huh-7 cells lacking the HCV replicon served as negative control. The cells are incubated in the presence of compounds for 72 hours after which they were monitored for expression of the NS4A protein by enzyme-linked immunosorbent assay (ELISA). For this, the plates were then fixed for 1 min with 1:1 acetone:methanol, washed twice with phosphate-buffered saline (PBS), 0.1% Tween 20, blocked for 1 hour at room temperature with TNE buffer containing 10% FBS and then incubated for 2 h at 37° C. with the anti-NS4A mouse monoclonal antibody A-236 (ViroGen) diluted in the same buffer. After washing three times with PBS, 0.1% Tween 20, the cells are incubated 1 hour at 37° C. with anti-mouse immunoglobulin G-peroxidase conjugate in TNE, 10% FBS. After washing as described above, the reaction is developed with O-phenylenediamine (Zymed). The reaction is stopped after 30 minutes with […] and the absorbance is read at 492 nm using a Sunrise Tecan spectrophotometer. EC50 values are determined from the % inhibition versus concentration data using a sigmoidal non-linear regression analysis based on four parameters with Tecan Magellan software. When screening at a single concentration, the results are expressed as % inhibition at 15 μM. For cytotoxicity evaluation, GS4.1 cells are treated with compounds as described above and cellular viability was monitored using a Cell Titer 96 AQueous One Solution Cell Proliferation Assay (Promega). CC50 values are determined from the % cytotoxicity versus concentration data with Tecan Magellan software as described above.
Compounds presented in the table below were assayed according to the replicon assay described above.

[2] = Cytotoxicity evaluation in GS4.1 cells (Cell Titer 96 AQueous One Solution Cell Proliferation Assay); type: cell-based; conditions: human, cellular viability, treated as in replicon assay, read-out: HCV Replicon CC50
Description: as §1

[3] = Hepatitis C virus, Huh-7, 72 h, GS4.1 cells, 72 hours incubation, NS4A expression by ELISA

| SMILES | EC50 [1, 3] [µM] | CC50 at 72 h [2] [µM] | EC50 ([1]; Hepatitis C virus, Huh-7, 72 h) [µM] | EC50 ([1]; GS4.1 cells, 72 hours incubation, NS4A expression by ELISA) [µM] |
| --- | --- | --- | --- | --- |
| COC(=O)C(CC(C)C)NP(=O)(NC(CC(C)C)C(=O)OC)OC[C@H]1O[C@@H](n2cnc3c(OC)nc(N)nc32)[C@@](C)(O)C1O (stereo in doubt) [Compound 3] | 0.1 to 1 | > 75 | – | – |
| COc1nc(N)nc2c1ncn2[C@@H]1O[C@H](COP(=O)(NC(CC(C)C)C(=O)OC(C)C)NC(CC(C)C)C(=O)OC(C)C)C(O)C1(C)O (stereo in doubt) [Compound 12] | 0.1 to 1 | > 75 | – | – |
| CCOC(=O)C(Cc1ccccc1)NP(=O)(NC(Cc1ccccc1)C(=O)OCC)OC[C@H]1O[C@@H](n2cnc3c(OC)nc(N)nc32)C(C)(O)C1O (stereo in doubt) [Compound 16] | < 0.1 | ≤ 75 | – | – |
| COC(=O)C(CC(C)C)NP(=O)(NC(CC(C)C)C(=O)OC)OC[C@H]1O[C@@H](n2cnc3c(OC)nc(N)nc32)[C@@]2(C)OC(=O)OC12 (stereo partly shown) [Compound 4] | < 0.1 | > 75 | – | – |
| CCOC(=O)C(CC(C)C)NP(=O)(NC(CC(C)C)C(=O)OCC)OC[C@H]1O[C@@H](n2cnc3c(NC4CC4)nc(N)nc32)C(C)(O)C1O (stereo partly shown) [Compound 6] | < 0.1 | > 75 | – | – |
| COC(=O)C(CC(C)C)NP(=O)(NC(CC(C)C)C(=O)OC)OC[C@H]1O[C@@H](n2cnc3c(NC4CC4)nc(N)nc32)C(C)(O)C1O (stereo partly shown) [Compound 8] | 0.1 to 1 | > 75 | – | – |
| COc1nc(N)nc2c1ncn2[C@@H]1O[C@H](COP(=O)(NC(Cc2ccccc2)C(=O)OC(C)C)NC(Cc2ccccc2)C(=O)OC(C)C)C(O)C1(C)O (stereo partly shown) [Compound 13] | 0.1 to 1 | ≤ 75 | – | – |
| C#CC1(F)C(O)[C@@H](COP(=O)(NC(CC(C)C)C(=O)OCC)NC(CC(C)C)C(=O)OCC)O[C@H]1n1cnc2c(=O)[nH]c(N)nc21 (stereo partly shown) [Compound 22] | > 10 | > 75 | – | – |
| C#CC1(F)C(O)[C@@H](COP(=O)(NC(CC(C)C)C(=O)OC)NC(CC(C)C)C(=O)OC)O[C@H]1n1cnc2c(=O)[nH]c(N)nc21 (stereo partly shown) [Compound 23] | > 10 | > 75 | – | – |
| CCOC(=O)[C@@H](NP(=O)(N[C@H](C(=O)OCC)c1ccccc1)OC[C@H]1O[C@@H](n2cnc3c(NC4CC4)nc(N)nc32)C(C)(O)C1O)c1ccccc1 (stereo partly shown) [Compound 30] | 1 to 10 | > 75 | – | – |
| CCOC(=O)[C@H](C)NP(=O)(N[C@@H](C)C(=O)OCC)OC[C@H]1O[C@@H](n2cnc3c(NC4CC4)nc(N)nc32)[C@@](C)(O)C1O (stereo partly shown) [Compound 31] | 0.1 to 1 | > 75 | – | – |
| CCOC(=O)[C@H](Cc1ccccc1)NP(=O)(N[C@@H](Cc1ccccc1)C(=O)OCC)OC[C@H]1O[C@@H](n2cnc3c(NC4CC4)nc(N)nc32)[C@@](C)(O)C1O (stereo partly shown) [Compound 32] | < 0.1 | > 75 | – | – |
| CCCOc1nc(N)nc2c1ncn2[C@@H]1O[C@H](COP(=O)(N[C@@H](CC(C)C)C(=O)OCC)N[C@@H](CC(C)C)C(=O)OCC)C(O)C1(C)O (stereo partly shown) [Compound 33] | < 0.1 | ≤ 75 | – | – |
| CCOC(=O)[C@H](CC(C)C)NP(=O)(N[C@@H](CC(C)C)C(=O)OCC)OC[C@H]1O[C@@H](n2cnc3c(N4CCOCC4)nc(N)nc32)C(C)(O)C1O (stereo partly shown) [Compound 34] | 0.1 to 1 | > 75 | – | – |
| CCOC(=O)[C@H](CC(C)C)NP(=O)(N[C@@H](CC(C)C)C(=O)OCC)OC[C@H]1O[C@@H](n2cnc3c(N(C)C)nc(N)nc32)C(C)(O)C1O (stereo partly shown) [Compound 35] | < 0.1 | > 75 | – | – |
| CCOC(=O)[C@H](CC(C)C)NP(=O)(N[C@@H](CC(C)C)C(=O)OCC)OC[C@H]1O[C@@H](n2cnc3c(N4CCCC4)nc(N)nc32)C(C)(O)C1O (stereo partly shown) [Compound 36] | < 0.1 | > 75 | – | – |
| CCOC(=O)[C@H](CC(C)C)NP(=O)(N[C@@H](CC(C)C)C(=O)OCC)OC[C@H]1O[C@@H](n2cnc3c(=O)[nH]c(N)nc32)C(C)(O)C1O (stereo partly shown) [Compound 37] | 1 to 10 | > 75 | – | – |
| CCOC(=O)[C@H](CC(C)C)NP(=O)(N[C@@H](CC(C)C)C(=O)OCC)OC[C@H]1O[C@@H](n2cnc3c(NC4CCCC4)nc(N)nc32)C(C)(O)C1O (stereo partly shown) [Compound 38] | < 0.1 | ≤ 75 | – | – |
| CCCOC(=O)[C@H](CC(C)C)NP(=O)(N[C@@H](CC(C)C)C(=O)OCCC)OC[C@H]1O[C@@H](n2cnc3c(OC)nc(N)nc32)[C@@](C)(O)C1O (stereo partly shown) [Compound 43] | < 0.1 | ≤ 75 | – | – |

| SMILES | EC50 [1, 3] [µM] | CC50 at 72 h [2] [µM] | EC50 ([1]; Hepatitis C virus, Huh-7, 72 h) [µM] | EC50 ([1]; GS4.1 cells, 72 hours incubation, NS4A expression by ELISA) [µM] |
| --- | --- | --- | --- | --- |
| CCCCOC(=O)[C@H](CC(C)C)NP(=O)(N[C@@H](CC(C)C)C(=O)OCCCC)OC[C@H]1O[C@@H](n2cnc3c(OC)nc(N)nc32)[C@@](C)(O)C1O (stereo partly shown) [Compound 44] | < 0.1 | ≤ 75 | – | – |
| C#CC1(F)C(O)[C@@H](COP(=O)(NCC(=O)OCC)NCC(=O)OCC)O[C@H]1n1cnc2c(=O)[nH]c(N)nc21 (stereo partly shown) [Compound 48] | 1 to 10 | > 75 | – | – |
| CCOC(=O)[C@H](CC(C)C)NP(=O)(N[C@@H](CC(C)C)C(=O)OCC)OC[C@H]1O[C@@H](n2ccc(OC)nc2=O)[C@](C)(O)[C@@H]1O [Compound 55] | 0.1 to 1 | > 75 | – | – |
| COc1ccn([C@@H]2O[C@H](COP(=O)(NCc3ccccc3)OCCSC(=O)C(C)(C)CO)[C@@H](O)[C@@]2(C)O)c(=O)n1 (stereo partly shown) [Compound 56] | < 0.1 | > 75 | – | – |
| COc1nc(N)nc2c1ncn2[C@@H]1O[C@H](COP(=O)(NC(C)C)OCCSC(=O)C(C)(C)CO)C(O)C1(C)O (stereo partly shown) [Compound 57] | – | – | 0.1 to 1 | – |
| COc1nc(N)nc2c1ncn2[C@@H]1O[C@H](COP(=O)(NCc2ccccc2)OCCSC(=O)C(C)(C)CO)C(O)C1(C)O (stereo partly shown) [Compound 57] | – | > 75 | < 0.1 | – |
| CCOC(=O)[C@@H](NP(=O)(N[C@@H](C(=O)OCC)C(C)C)OC[C@H]1O[C@@H](n2cnc3c(OC)nc(N)nc32)C(C)(O)C1O)C(C)C (stereo partly shown) [Compound 58] | < 0.1 | > 75 | – | – |
| CCOC(=O)[C@@H](NP(=O)(N[C@@H](C(=O)OCC)c1ccccc1)OC[C@H]1O[C@@H](n2cnc3c(OC)nc(N)nc32)C(C)(O)C1O)c1ccccc1 (stereo partly shown) [Compound 59] | 1 to 10 | > 75 | – | – |
| COC(=O)C1CCCN1P(=O)(OC[C@H]1O[C@@H](n2cnc3c(OC)nc(N)nc32)C(C)(O)C1O)N1CCCC1C(=O)OC (stereo partly shown) [Compound 60] | 0.1 to 1 | > 75 | – | – |
| CCOC(=O)[C@@H](CC(C)C)NP(=O)(N[C@H](CC(C)C)C(=O)OCC)OC[C@H]1O[C@@H](n2cnc3c(OC)nc(N)nc32)C(C)(O)C1O (stereo partly shown) [Compound 61] | – | > 75 | – | 1 to 10 |
| CCOC(=O)[C@H](CC(C)C)NP(=O)(N[C@H](CC(C)C)C(=O)OCC)OC[C@H]1O[C@@H](n2cnc3c(OC(C)C)nc(N)nc32)C(C)(O)C1O (stereo partly shown) [Compound 62] | < 0.1 | > 75 | – | – |
| CCOC(=O)[C@H](CC)NP(=O)(N[C@H](CC)C(=O)OCC)OC[C@H]1O[C@@H](n2cnc3c(OC)nc(N)nc32)C(C)(O)C1O (stereo partly shown) [Compound 63] | 0.1 to 1 | > 75 | – | – |
| CCOC(=O)[C@H](CC(C)C)NP(=O)(N[C@H](CC(C)C)C(=O)OCC)OC[C@H]1O[C@@H](n2cnc3c(OCC)nc(N)nc32)C(C)(O)C1O (stereo partly shown) [Compound 64] | < 0.1 | > 75 | – | – |
| CCOC(=O)[C@H](CC(C)C)NP(=O)(N[C@@H](CC(C)C)C(=O)OCC)OC[C@H]1O[C@@H](n2cnc3c(OC)nc(N)nc32)C(C)(O)C1O (stereo partly shown) [Compound 65] | < 0.1 | > 75 | – | – |
| CCOC(=O)[C@@H](NP(=O)(N[C@H](C(=O)OCC)C(C)CC)OC[C@H]1O[C@@H](n2cnc3c(N4CCCC4)nc(N)nc32)C(C)(O)C1O)C(C)CC (stereo partly shown) [Compound 67] | 0.1 to 1 | > 75 | – | – |
| CCOC(=O)[C@@H](NP(=O)(N[C@H](C(=O)OCC)C(C)C)OC[C@H]1O[C@@H](n2cnc3c(N4CCCC4)nc(N)nc32)C(C)(O)C1O)C(C)C (stereo partly shown) [Compound 68] | < 0.1 | > 75 | – | – |
| CCOC(=O)[C@H](Cc1ccccc1)NP(=O)(N[C@@H](Cc1ccccc1)C(=O)OCC)OC[C@H]1O[C@@H](n2cnc3c(N4CCCC4)nc(N)nc32)C(C)(O)C1O (stereo partly shown) [Compound 69] | < 0.1 | ≤ 75 | – | – |
| CCOC(=O)C(NP(=O)(NC(C(=O)OCC)C(C)C)OC[C@H]1O[C@@H](n2cnc3c(NC4CC4)nc(N)nc32)C(C)(O)C1O)C(C)C (stereo partly shown) [Compound 70] | 0.1 to 1 | > 75 | – | – |
